Values quoted from earlier work, collected in patent US20210361561A1, “A pouch product suitable for application in an oral cavity” (priority 2019, published 2021).

Legend:
CB2 receptors = CB2 receptors (Homo sapiens, UniProt P34972); conditions: compared with CB1 receptors
CB1 receptors = CB1 receptors (Homo sapiens, UniProt P21554)
CB1 receptors, sequence (P21554 whole entry): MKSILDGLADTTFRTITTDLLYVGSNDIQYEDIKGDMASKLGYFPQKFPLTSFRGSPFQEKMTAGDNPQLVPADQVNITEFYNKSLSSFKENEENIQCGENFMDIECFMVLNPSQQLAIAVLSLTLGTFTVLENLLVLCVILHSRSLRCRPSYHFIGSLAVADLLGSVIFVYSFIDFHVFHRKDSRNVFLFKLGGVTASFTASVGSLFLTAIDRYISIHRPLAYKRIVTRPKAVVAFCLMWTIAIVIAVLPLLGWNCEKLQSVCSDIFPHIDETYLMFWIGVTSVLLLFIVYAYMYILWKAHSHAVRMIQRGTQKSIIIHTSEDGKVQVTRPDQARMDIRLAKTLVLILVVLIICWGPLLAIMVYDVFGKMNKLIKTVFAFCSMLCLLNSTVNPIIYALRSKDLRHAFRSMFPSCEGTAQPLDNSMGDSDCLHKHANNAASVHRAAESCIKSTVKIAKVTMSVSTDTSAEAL

CB2 receptors, sequence (P34972 whole entry): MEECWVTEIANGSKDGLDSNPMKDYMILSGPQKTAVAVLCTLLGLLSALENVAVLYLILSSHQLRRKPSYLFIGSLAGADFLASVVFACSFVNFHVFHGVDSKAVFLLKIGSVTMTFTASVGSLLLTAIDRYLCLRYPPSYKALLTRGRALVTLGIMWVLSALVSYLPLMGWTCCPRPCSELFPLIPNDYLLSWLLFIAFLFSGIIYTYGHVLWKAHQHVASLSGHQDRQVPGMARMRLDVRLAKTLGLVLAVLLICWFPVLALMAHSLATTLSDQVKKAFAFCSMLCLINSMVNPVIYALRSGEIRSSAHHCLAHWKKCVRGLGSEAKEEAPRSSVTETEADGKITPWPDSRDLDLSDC

SMILES: CCCCCc1cc(O)c2c(c1)OC(C)(C)c1ccc(C)cc1-2 [CBN, 6,6,9-Trimethyl-3-pentyl-benzo[c]chromen-1-ol]
- affinity to CB2 receptors (CB2 receptors): higher affinity
- activity at the CB1 receptors (CB1 receptors): partial agonist
- affinities relative to THC (CB1 receptors; CB1 and CB2 receptors): lower affinities relative to THC
